Measured values from patent US8377974B2 (Millennium Pharmaceuticals, Inc., priority 2004, dated 2013).

Molecular target: T1, human plasma protein factor Xa (Homo sapiens, UniProt P00742)
T1 construct: measure proteolytic activity of the enzyme (factor Xa); purchased Haematologic Technologies (Essex Junction, Vt.); host or cells: human plasma
Assay: Factor Xa IC50 determination: cleavage of paranitroanilide substrate S-2765 in 96-well plates
Type: biochemical
Settings: fXa 1 nM, S-2765 100 μM, Tris buffered saline pH 7.4, room temperature
Source text: This example illustrates methods for evaluating the compounds of the invention, along with results obtained for such assays. The in vitro and in vivo Factor Xa isoform activities of the inventive compounds can be determined by various procedures known in the art, such as a test for their ability to inhibit the activity of the Factor Xa isoform. […] The IC50 value is the concentration (in nM) of the compound required to provide 50% inhibition of Factor Xa isoform.
An in vitro assay for detecting and measuring inhibition activity against Factor Xa is as follows:
The substrate S-2765 (Z-D-Arg-Gly-Arg-pNA.HCl) was obtained from Diapharma (West Chester, Ohio).
The human plasma protein factor Xa was purchased from Haematologic Technologies (Essex Junction, Vt.).
All assays, which are performed in 96-well microtiter plates, measure proteolytic activity of the enzyme (factor Xa) by following cleavage of paranitroanilide substrate. The assay buffer used for proteolytic assays was Tris buffered saline (20 mM Tris, 150 mM NaCl, 5 mM CaCl2, 0.1% Bovine serum albumin (BSA), 5% Dimethly Sulfoxide (DMSO) pH 7.4). In a 96-well microtiter plate, inhibitor was serially diluted to give a range of concentrations from 0.01 nM to 10 μM (final). Duplicate sets of wells were assayed and control wells without inhibitor were included. Enzyme was added to each well, (fXa concentration=1 nM), the plate was shaken for 5 seconds and then incubated for 5 minutes at room temperature. S2765 was added (100 μM final) and the plate was shaken for 5 seconds (final liquid volume in each well was 200 μl). The degree of substrate hydrolysis was measured at 405 nm on a Thermomax plate reader (Molecular Devices, Sunnyvale, Calif.) for 2 minutes. The initial velocities (mOD/min), for each range of inhibitor concentrations, were fitted to a four parameter equation using Softmax data analysis software. The parameter C, derived from the resulting curve-fit, corresponded to the concentration for half maximal inhibition (IC50).

T1 sequence (P00742 235-488 limits assumed): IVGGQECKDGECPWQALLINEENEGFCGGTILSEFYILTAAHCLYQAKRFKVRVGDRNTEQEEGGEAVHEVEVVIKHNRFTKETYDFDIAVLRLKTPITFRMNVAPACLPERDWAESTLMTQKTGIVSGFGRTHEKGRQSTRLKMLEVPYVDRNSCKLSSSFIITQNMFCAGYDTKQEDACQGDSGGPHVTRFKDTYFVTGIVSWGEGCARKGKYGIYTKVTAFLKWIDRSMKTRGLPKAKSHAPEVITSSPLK
T1 sequence (P00742 41-179 partner limits assumed): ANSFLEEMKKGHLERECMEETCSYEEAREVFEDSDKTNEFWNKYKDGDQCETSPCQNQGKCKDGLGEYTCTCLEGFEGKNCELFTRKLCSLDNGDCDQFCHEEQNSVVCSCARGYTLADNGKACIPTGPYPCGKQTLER

| IC50 | SMILES |
| --- | --- |
| ≤ 100 nM | CCOc1cc(Nc2ccc(C3=NOC(CNC(=O)c4ccc(Cl)s4)C3)cc2)ccn1 (centres unmarked) [Example 401, 5-Chloro-N-((3-(4-(2-ethoxypyridin-4-ylamino)phenyl)-4,5-dihydroisoxazol-5-yl)methyl)thiophene-2-carboxamide] |
| ≤ 100 nM | CN1CCN=C1c1ccc(-n2cc(CNC(=O)c3ccc(Cl)s3)nn2)c(F)c1 [Example 324, 5-Chloro-N-((1-(2-fluoro-4-(1-methyl-4,5-dihydro-1H-imidazol-2-yl)phenyl)-1H-1,2,3-triazol-4-yl)methyl)thiophene-2-carboxamide] |
| ≥ 500 nM | O=C(O)c1ccc(C2=NOC(CNC(=O)c3ccc(Cl)s3)C2)cc1 (centres unmarked) [Example 158, 4-(5-{[(5-Chloro-thiophene-2-carbonyl)-amino]-methyl}-4,5-dihydro-isoxazol-3-yl)-benzoic acid] |
| ≥ 500 nM | CN1CCC(Nc2ccc(-c3cc(CNC(=O)c4ccc(Cl)s4)on3)cc2)CC1 [Example 259, 5-Chloro-thiophene-2-carboxylic acid {3-[4-(1-methyl-piperidin-4-ylamino)-phenyl]-isoxazol-5-ylmethyl}-amide] |
| ≤ 100 nM | CN(C)CCN(C)C(=N)c1ccc(-c2cc(CNC(=O)c3ccc(Cl)s3)on2)cc1 [Example 30, 5-Chloro-thiophene-2-carboxylic acid (3-{4-[N-(2-dimethylamino-ethyl)-N-methyl-carbamimidoyl]-phenyl}-isoxazol-5-ylmethyl)-amide] |
| ≤ 100 nM | N=C(c1ccc(-n2cc(CNC(=O)c3ccc(Cl)s3)nn2)c(F)c1)N1CCC1 [Example 321, N-((1-(4-(Azetidin-1-yl(imino)methyl)-2-fluorophenyl)-1H-1,2,3-triazol-4-yl)methyl)-5-chlorothiophene-2-carboxamide] |
| ≤ 100 nM | CN(C)CCN(C)C(=N)c1ccc(C2=NOC(C)(CNC(=O)c3ccc(Cl)s3)C2)cc1 (centres unmarked) [Example 65, 5-Chloro-thiophene-2-carboxylic acid (3-{4-[N-(2-dimethylamino-ethyl)-N-methyl-carbamimidoyl]-phenyl}-5-methyl-4,5-dihydro-isoxazol-5-ylmethyl)-amide] |
| ≥ 500 nM | O=C(NCc1cc(-c2ccc(-c3ccccn3)cc2)no1)c1ccc(Cl)s1 [Example 220, 5-Chloro-thiophene-2-carboxylic acid [3-(4-pyridin-2-yl-phenyl)-isoxazol-5-ylmethyl]-amide] |
| ≤ 100 nM | N#Cc1ccc(-c2cc(CNC(=O)c3ccc(Cl)s3)on2)cc1 [Example 20, 5-Chloro-thiophene-2-carboxylic acid [3-(4-cyano-phenyl)-isoxazol-5-ylmethyl]-amide] |
| ≤ 100 nM | N=C(c1ccc(-c2noc(CNC(=O)c3ccc(Cl)s3)n2)cc1)N1CCCCC1 [Example 337, 5-Chloro-N-((3-(4-(imino(piperidin-1-yl)methyl)phenyl)-1,2,4-oxadiazol-5-yl)methyl)thiophene-2-carboxamide] |
| ≤ 100 nM | CN(C)C(=N)c1ccc(C2=NOC(CNC(=O)c3ccc(Cl)s3)C2)c(N2CCOCC2)c1 (centres unmarked) [Example 82, 5-Chloro-thiophene-2-carboxylic acid {3-[4-(N,N-dimethyl-carbamimidoyl)-2-morpholin-4-yl-phenyl]-4,5-dihydro-isoxazol-5-ylmethyl}-amide] |
| ≥ 500 nM | O=C(NCc1cc(-c2ccccc2)no1)c1ccc(Cl)s1 [Example 146, 5-Chloro-thiophene-2-carboxylic acid (3-phenyl-isoxazol-5-ylmethyl)-amide] |
| ≤ 100 nM | CN(C)C(=N)c1ccc(-c2cncc(CNC(=O)c3ccc(Cl)s3)c2)cc1 [Example 369, N-((5-(4-(N,N-Dimethylcarbamimidoyl)phenyl)pyridin-3-yl)methyl)-5-chlorothiophene-2-carboxamide] |
| ≤ 100 nM | CN1CCN=C1c1ccc(-c2cc(CNC(=O)c3ccc(Cl)s3)no2)cc1 [Example 331, 5-Chloro-N-((5-(4-(1-methyl-4,5-dihydro-1H-imidazol-2-yl)phenyl)isoxazol-3-yl)methyl)thiophene-2-carboxamide] |
| ≥ 500 nM | CNC(=N)c1ccc(-c2cc(CNC(=O)c3ccc(Cl)s3)on2)cc1 [Example 34, 5-Chloro-thiophene-2-carboxylic acid {3-[4-(N-methylcarbamimidoyl)-phenyl]-isoxazol-5-ylmethyl}-amide] |
| ≤ 100 nM | CSc1cc(C(=N)N2CCCCC2)ccc1C1=NOC(CNC(=O)c2ccc(Cl)s2)C1 (centres unmarked) [Example 139, 5-Chloro-thiophene-2-carboxylic acid {3-[4-(imino-piperidin-1-yl-methyl)-2-methylsulfanyl-phenyl]-4,5-dihydro-isoxazol-5-ylmethyl}-amide] |
| ≤ 100 nM | COCCN(C)C(=N)c1ccc(-c2cc(CNC(=O)c3ccc(Cl)s3)on2)cc1 [Example 32, 5-Chloro-thiophene-2-carboxylic acid (3-{4-[N-(2-methoxy-ethyl)-N-methyl-carbamimidoyl]-phenyl}-isoxazol-5-ylmethyl)-amide] |
| ≤ 100 nM | N=C(c1ccc(-c2nc(CNC(=O)c3ccc(Cl)s3)cs2)cc1)N1CCCC1 [Example 352, 5-Chloro-N-((2-(4-(imino(pyrrolidin-1-yl)methyl)phenyl)thiazol-4-yl)methyl)thiophene-2-carboxamide] |
| ≤ 100 nM | N=C(c1ccc(-n2cc(CNC(=O)c3ccc(Cl)s3)cn2)cc1)N1CCCCC1 [Example 329, 5-Chloro-N-((1-(4-(imino(piperidin-1-yl)methyl)phenyl)-1H-pyrazol-4-yl)methyl)thiophene-2-carboxamide] |
| ≥ 500 nM | O=C(NCC1CC(c2cccc(-c3cccnc3)c2)=NO1)c1ccc(Cl)s1 (centres unmarked) [Example 274, 5-Chloro-thiophene-2-carboxylic acid [3-(3-pyridin-3-yl-phenyl)-4,5-dihydro-isoxazol-5-ylmethyl]-amide] |
| ≥ 500 nM | O=C(NCc1cc(-c2ccc(I)cc2)no1)c1ccc(Cl)s1 [Example 288, 5-Chloro-N-((3-(4-iodophenyl)isoxazol-5-yl)methyl)thiophene-2-carboxamide] |
| ≥ 500 nM | CC1(CNC(=O)c2ccc(Cl)s2)CC(c2ccc(Cl)cc2)=NO1 (centres unmarked) [Example 154, 5-Chloro-thiophene-2-carboxylic acid [3-(4-chloro-phenyl)-5-methyl-4,5-dihydro-isoxazol-5-ylmethyl]-amide] |
| ≤ 100 nM | Cc1ccc(=O)n(-c2ccc(-n3cc(CNC(=O)c4ccc(Cl)s4)nn3)cc2)c1 [Example 296, 5-Chloro-N-((1-(4-(5-methyl-2-oxopyridin-1(2H)-yl)phenyl)-1H-1,2,3-triazol-4-yl)methyl)thiophene-2-carboxamide] |
| ≤ 100 nM | CCOc1cc(C(=N)N2CCCC2)ccc1C1=NOC(CNC(=O)c2ccc(Cl)s2)C1 (centres unmarked) [Example 108, 5-Chloro-thiophene-2-carboxylic acid {3-[2-ethoxy-4-(imino-pyrrolidin-1-yl-methyl)-phenyl]-4,5-dihydro-isoxazol-5-ylmethyl}-amide] |
| ≥ 500 nM | O=C(NCC1CC(c2ccc(Oc3ccccc3)cc2)=NO1)c1ccc(Cl)s1 (centres unmarked) [Example 5, 5-Chloro-thiophene-2-carboxylic acid [3-(4-phenoxy-phenyl)-4,5-dihydro-isoxazol-5-ylmethyl]-amide] |
| ≤ 100 nM | CCCN(C)C(=N)c1ccc(-c2cc(CNC(=O)c3ccc(Cl)s3)on2)cc1 [Example 29, 5-Chloro-thiophene-2-carboxylic acid {3-[4-(N-methyl-N-propyl-carbamimidoyl)-phenyl]-isoxazol-5-ylmethyl}-amide] |
